Laboratory results taken from BindingDB's records for doi:10.1021/jm030493t (Johnson & Johnson Pharmaceutical Research & Development, 2004).

Assay: Compound was tested for inhibition of gel-filtered platelet (GFP) aggregation induced by alpha-thrombin

IC50 [nM]	SMILES
83	CN[C@H](Cc1ccccc1)C(=O)N1CCCC1C(=O)N[C@H](C=O)CCCNC(=N)N (stereo partly drawn) [(S)-1-((R)-2-Methylamino-3-phenyl-propionyl)-pyrrolidine-2-carboxylic acid ((S)-1-formyl-4-guanidino-butyl)-amide]
32	CN[C@H](Cc1ccccc1)C(=O)N1CCC[C@H]1C(=O)N[C@@H](CCCN=C(N)N)C(=O)c1nc2ccccc2s1 [RWJ-50353]
